Patent US20090036380A1, “Composition And Method For Brain Tumor Therapy” (Yeda Research and Development Co., Ltd., priority 2006, published 2009)

Experiments:
[1] = tested on: PC12 cells; assay: Effect of pathway proteins and inhibitors on Karet-induced cell death in PC12 cells; assay type: cell-based, rat
[2] = tested on: human medulloblastoma cells (MED 283) stably transfected to express TrkA; details: cited from earlier work
[3] = tested on: PC12 cells; assay: Viability / death of PC12 cells after transfection with Karet constructs (Live/dead kit, FACS, cell counting, Hoechst); assay type: cell-based, rat
Experimental: FIG. 5a is a bar-graph of FACS data depicting 50 percent death of PC12 cells overexpressing Karet. Shown is a FACS analysis of PC12 viability 15 hours after transfection with Ha-Karet or control vector using Live/dead kit (Molecular probes), T-test=0.003.
FIG. 5b is a series of fluorescence photomicrographs depicting death of PC12 cells caused by Karet overexpression. Shown is a live/dead kit analysis of PC12 cells overexpressing Ha-Karet (left panels) versus control vector-transfected cells (right panels). Live cell are stained in green, dead cells are stained in red. Upper panels each show red fluorescence only (left picture) and green fluorescence only (right picture) pairs, and lower panels each show combined red and green fluorescence (left picture) and light microscopy images (right picture) pairs.
FIG. 5d is a pair of Hoechst stain histology photomicrographs depicting condensation of chromatin indicating apoptosis in PC12 cells expressing Karet, but not in control cells transfected with vector only.
FIG. 5e is a histogram depicting that Karet expression induces cell death of TrkA expressing cells, which is increased by NGF treatment and is decreased by necdin. PC12 or PC12 necdin stable cell line were electroporated with Karet or GFP control and incubated with or without 50 ng/ml NGF for 12 hours. Cells were counted and result presented as percent of control.
PC12 cells were transfected with Ha Karet, PTB, non PTB and their combinations. Cells were analyzed by FACS 18 hours after transfection using the dead/live kit. N=3; * p<0.05; **p<0.001;
The lower panel is a histogram depicting that Karet-mediated cell death correlates well with expression levels of the Karet protein. PC12 Tet-on cells were electroporated with Ha-Karet cloned under inducible promoter and incubated for 24 hours with different concentrations of doxycycline. Cells transfected with Karet but not treated with doxycycline served as control. Cells were counted and the results were determined as percent of control. The upper panel is a control Western blot depicting increased Karet expression with increased concentrations of doxycycline. Cells transfected with Karet and treated with doxycycline were lysed in NP-40 buffer and subjected to SDS-PAGE analysis. Similar amount of protein was loaded and blotted for Karet expression with Ha antibody. Proteins levels were checked with anti-tubulin antibody.
FIG. 18a—PC12 were transfected with Ha Karet, Karet F217V, PTB F217V or a control vector (pcDNA3) and 18 hours after transfection the effect of Karet or Karet mutants on cell death was determined using the dead/live kit and FACS analysis. Results are presented in percentages as compared to cells transfected with the control vector. N=3 **P<0.001. […] FIG. 18b—Cells were lysed 24 hours after transfection, fractionated on SDS-PAGE and immunoblot for anti Ha (Covance).
FIG. 19 is a histogram depicting FACS analysis of Karet-induced death. PC12 cells were co-transfected with Karet and the PTB, non-PTB or the F217V mutant at different ratios (1:1, 1:2, 1:3) and 18 hours after transfection the cells were analyzed by FACS using the dead/live kit.
Viability of cells was evaluated using the Live/dead viability/cytotoxicity kit (Cat. No. L-3224), Molecular Probes, Inc., Eugene, Oreg., USA, according to manufacturer's instructions.

[4] = tested on: TrkA; assay: Co-immunoprecipitation of HA-Karet constructs with TrkA; assay type: binding; details: co-transfected Hek or NNR5 cells, anti-HA IP
Experimental: (§1) FIG. 3c is a co-immunoprecipitation assay depicting co-immunoprecipitation of HA-Karet with TrkA in COS cells. Karet tagged with the HA epitope was immunoprecipitated with anti-HA antibody and the blot was incubated with anti-TrkA (RTA). In control experiments the HA-Karet was substituted with vector.
(§2) FIG. 3d is a co-immunoprecipitation assay depicting interaction of Karet and TrkA in NNR5 cells transfected with TrkA.
(§3) FIG. 3e is a co-immunoprecipitation assay depicting co-immunoprecipitation of HA-Karet with TricA in co-transfected NNR5 cells immunoprecipitated with anti-HA (Roche) and Western blot with the anti-TrkA antibody C14 (Santa Cruz).
(§4) FIGS. 4a-c are co-immunoprecipitation assay results depicting the influence of NGF treatment on TrkA-Karet interaction. FIG. 4a depicts that TrkA-Karet interaction occurred prior to NGF treatment and was enhanced after ligand stimulation for 10 minutes (10 m) or 2 hours (2 h). HA-Karet was electroporated into cell line PC12, and the cells were treated with 50 ng/ml NGF for the indicated time periods in order to activate p75 and TrkA. Karet tagged with the HA epitope was immunoprecipitated with anti-HA antibody, the precipitated proteins were separated electrophoretically, and gel blots were incubated with anti-TrkA antibody (RTA). FIG. 4b depicts that necdin seems to compete with TrkA for binding to Karet. myc-Karet was electroporated into necdin stable cell line, and the cells were treated with 50 ng/ml NGF for the indicated time periods. Karet tagged with the myc epitope was immunoprecipitated with anti-myc antibody, the precipitated proteins were separated electrophoretically, and gel blots were incubated with anti-TrkA antibody (RTA). […] A blot from the same experiment was stripped and re-incubated with anti-necdin antibody. The arrow indicates the glycosylated form of TrkA (molecular weight of 140 kDa).
(§5) FIG. 7b is an immunoprecipitation assay depicting that the PTB domain-containing Karet(1-228) mutant, but not Karet(228-453) co-immunoprecipitates with TrkA in NNR5 cells. Truncation mutants tagged with the HA epitope were immunoprecipitated with anti-HA antibody, the precipitated proteins were separated electrophoretically, and gel blots were incubated with anti-TrkA (RTA).
(§6) FIGS. 24a-d depict co IP of Ha Karet with TrkA, TrkB, TrkC, p75 from co-transfected Hek cells. Cells were co-transfected with Ha Karet or control vector and TrkA, TrkB, TrkC or p75. Cells were lysed with NP40, the HA-beads (beads conjugated to anti-HA antibody) were blocked with Hek lysate, and elution was done for 30 minutes at 37° C. […]

[5] = target: T1, TrkA (Rattus norvegicus, UniProt P35739); assay: as above; assay type: binding; details: PC12 cells transfected with Karet; 50 ng/ml NGF, 10 minutes and 2 hours
T1 construct: expressed in transfected cells
T1 sequence (P35739 33-799): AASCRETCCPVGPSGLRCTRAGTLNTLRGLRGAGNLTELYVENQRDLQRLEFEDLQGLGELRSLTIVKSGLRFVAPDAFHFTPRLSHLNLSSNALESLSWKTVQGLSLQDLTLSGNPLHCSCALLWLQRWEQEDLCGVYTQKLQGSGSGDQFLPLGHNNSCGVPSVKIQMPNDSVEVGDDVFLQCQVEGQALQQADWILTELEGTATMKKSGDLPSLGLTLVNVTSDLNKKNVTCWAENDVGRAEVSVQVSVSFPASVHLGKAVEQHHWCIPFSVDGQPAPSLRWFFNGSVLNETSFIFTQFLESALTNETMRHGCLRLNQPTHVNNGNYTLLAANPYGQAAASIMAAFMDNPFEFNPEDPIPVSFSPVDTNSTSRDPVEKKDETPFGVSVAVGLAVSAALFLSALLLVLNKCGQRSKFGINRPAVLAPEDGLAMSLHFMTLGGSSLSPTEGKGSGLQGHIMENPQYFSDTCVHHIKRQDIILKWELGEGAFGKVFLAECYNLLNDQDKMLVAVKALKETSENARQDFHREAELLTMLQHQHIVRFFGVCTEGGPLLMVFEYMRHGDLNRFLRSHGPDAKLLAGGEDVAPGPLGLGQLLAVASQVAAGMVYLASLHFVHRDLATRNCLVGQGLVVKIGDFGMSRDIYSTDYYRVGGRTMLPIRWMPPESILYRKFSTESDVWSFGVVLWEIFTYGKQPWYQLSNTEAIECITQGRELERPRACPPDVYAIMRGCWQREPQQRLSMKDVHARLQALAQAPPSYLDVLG
Experimental: as §1, §2, §3, §4, §5, §6

## COC(=O)[C@@]1(O)C[C@H]2O[C@]1(C)n1c3ccccc3c3c4c(c5c6ccccc6n2c5c31)C(=O)NC4 [K252a, reference compound]
[1]; PC12 cells expressing Karet, 12 hours, different concentrations of K252A
  effect on cell death effect of Karet: diminished the cell death effect of Karet
[2]; TrkA-medulloblastoma cells
  effect on NGF-induced apoptosis: inhibited

## C[S+]([O-])c1ccc(-c2nc(-c3ccncc3)c(-c3ccc(F)cc3)[nH]2)cc1 (centres unmarked) [SB203580, reference compound]
[1]; PC12 electroporated with Karet, 10 micromolar SB203580
  effect on cell death induction by Karet: did not affect cell death induction

## Karet(228-453): C-terminal truncation mutant of mouse Karet, amino acid residues 228-453 (SEQ ID NO:8)
[3]; PC12 co-transfected with Karet at ratios 1:1, 1:2, 1:3, FACS 18 hours after transfection
  effect on Karet-induced death in competition assay: reduced Karet-induced death
[4]
  co-immunoprecipitation / interaction with TrkA: does not

## NGF: nerve growth factor, neurotrophin ligand of TrkA
[3]; PC12 cells overexpressing Karet, 50 ng/ml NGF, 12 hours
  additional increase of death by NGF treatment: 30%
[5]
  effect of NGF on TrkA-Karet interaction: enhanced
[2]; MED 283 cells expressing TrkA
  cell death on NGF treatment: significant levels of cell death
